Measurements published in patent US7485644B2, “N-{'4-substituted piperazine-1-sulfonylmethylalkyl}-n-hydroxyfomamide compounds as metalloproteinase inhibitors” (AstraZeneca AB, priority 2003, dated 2009).

target: T1, Collagenase 3 (MMP13) (Homo sapiens, UniProt P45452); assay: Collagenase 3 (MMP13) enzyme inhibition, fluorogenic peptide substrate; type: biochemical; conditions: recombinant human proMMP13 activated with APMA; 4-5 hours at 35° C., pH 7.5; fluorescence λex 328 nm, λem 393 nm; read-out: IC50 (nM), collagenase 3 (MMP13) inhibitory activity
T1 construct: made in house
Source text: The activity and selectivity of the compounds according to the invention may be determined using an appropriate enzyme inhibition test as described in WO 00/12478, WO 00/75108 and WO 01/62742. Collagenase 3 (MMP13) inhibitory activity may be assessed, for example, using the procedure set out below:—
Recombinant human proMMP13 may be expressed and purified as described by Knauper et al. [V. Knauper et al., (1996) The Biochemical Journal 271:1544-1550 (1996)]. The purified enzyme can be used to monitor inhibitors of activity as follows: purified proMMP13 is activated using 1 mM amino phenyl mercuric […] (APMA), 20 hours at 21° C.; the activated MMP13 (11.25 ng per assay) is incubated for 4-5 hours at 35° C. in assay buffer (0.1M Tris-HCl, pH 7.5 containing 0.1M NaCl, 20 mM CaCl2, 0.02 mM ZnCl and 0.05% (w/v) Brij 35 using the synthetic substrate 7-methoxycoumarin-4-yl)acetyl.Pro.Leu.Gly.Leu.N-3-(2,4-dinitrophenyl)-L-2,3-diaminopropionyl.Ala.Arg.NH2 in the presence or absence of inhibitors. Activity is determined by measuring the fluorescence at λex 328 nm and λem 393 nm. By measuring the activity at a range of concentrations, a binding curve can be generated from which the IC50 can be determined, this figure being the inhibitor concentration at which the enzyme activity is reduced by 50%.

Compared with `CCC(CS(=O)(=O)N1CCN(c2ccc(OC(F)(F)C(F)F)cc2)CC1)N(O)C=O` (racemic) [Example 7f], `O=CN(O)C(CCc1ncc(F)cn1)CS(=O)(=O)N1CCN(c2ccc(OC(F)(F)C(F)F)cc2)CC1` (centres unmarked) [Example 7c] is 15-fold lower in IC50: 2.8 nM for the first, 0.19 nM for the second. The second is the more potent here.

Compared with `O=CN(O)C(CCc1ncc(F)cn1)CS(=O)(=O)N1CCN(c2ccc(OCC(F)(F)F)cn2)CC1` (centres unmarked) [Example 2b], `O=CN(O)C(CCc1ncccn1)CS(=O)(=O)N1CCN(c2ccc(OCC(F)(F)F)cc2)CC1` (centres unmarked) [Example 8b] is 6.2-fold higher in IC50: 0.24 nM for the first, 1.5 nM for the second. The first is the more potent here.

Going from `O=CN(O)C(CS(=O)(=O)N1CCN(c2ncc(OCC(F)(F)F)cn2)CC1)C1CCOCC1` (centres unmarked) [Example 2f] to `O=CN(O)C(CS(=O)(=O)N1CCN(c2ccc(OCC(F)(F)F)cc2)CC1)C1CCOCC1` (centres unmarked) [Example 8g], the IC50 falls from 13 nM to 4 nM (3.2-fold). The second is the more potent here.

First: O=CN(O)C(CS(=O)(=O)N1CCN(c2ccc(OC(F)(F)C(F)F)cc2)CC1)c1ccccc1 (centres unmarked) [Example 5, Hydroxy[1-phenyl-2-({4-[4-(1,1,2,2-tetrafluoroethoxy)phenyl]piperazin-1-yl}sulfonyl)ethyl]formamide]
Second: O=CN(O)C(CCCc1ncccn1)CS(=O)(=O)N1CCN(c2ccc(OC(F)(F)C(F)F)cc2)CC1 (centres unmarked) [Example 7a]
The IC50 of the first is 30-fold higher: 3.6 nM for the first, 0.12 nM for the second. The second is the more potent here.

test system: not given; assay: not given; conditions: not given

Compared with `O=CN(O)[C@@H](CCCc1ncccn1)CS(=O)(=O)N1CCN(c2ncc(OCC(F)(F)F)cn2)CC1` [Example 1, Hydroxy{(1S)-4-pyrimidin-2-yl-1-[({4-[5-(2,2,2-trifluoroethoxy)pyrimidin-2-yl]piperazin-1-yl}sulfonyl)methyl]butyl}formamide], `O=CN(O)[C@@H](CCc1ncccn1)CS(=O)(=O)N1CCN(c2ccc(OCC(F)(F)F)cn2)CC1` [Example 3, Hydroxy{(1S)-3-pyrimidin-2-yl-1-[({4-[5-(2,2,2-trifluoroethoxy)pyridin-2-yl]piperazin-1-yl}sulfonyl)methyl]propyl}formamide] is higher in melting point: 129 to 133 °C for the first, 149 to 151 °C for the second.

`O=CN(O)[C@H](CS(=O)(=O)N1CCN(c2ccc(OC(F)(F)C(F)F)cc2)CC1)C1CCOCC1` [Example 4, Hydroxy[(1S)-2-({4-[4-(1,1,2,2-tetrafluoroethoxy)phenyl]piperazin-1-yl}sulfonyl)-1-(tetrahydro-2H-pyran-4-yl)ethyl]formamide] gave a melting point of 175 to 176 °C.
